Test results: patent US20220349876A1, “USE OF DKK1 INHIBITOR IN PREVENTION AND/OR TREATMENT OF TUMOR CACHEXIA AND DISEASES ASSOCIATED WITH DIABETES” (SHANGHAI DONGTSU BIOSCIENCES CO., LTD., priority 2019, published 2022)
Entries after “also recorded” stand apart in the source; their conditions may differ.

Key:
[1] = system: CT26 tumor-bearing mice; experiment: Tumor cachexia in CT26 tumor-bearing mice: tumor-free body weight, muscle weight, muscle membrane proteins; assay type: in vivo, mouse
[2] = system: CT26 tumor-bearing mice; experiment: Survival of CT26 tumor-bearing mice (Kaplan-Meier); settings: mouse, in vivo; for survival of tumor-bearing mice: ip
[3] = system: STZ-induced diabetic mice; experiment: STZ-induced type 1 diabetes mouse model with insulin or MDC rescue; assay type: in vivo
Protocol: STZ-induced diabetes is a chemical modeling method for diabetes. Its full name is streptozotocin, which is a broad-spectrum antibiotic isolated from achromatic streptomycin. It can selectively damage islet 13 cells in a short period of time, causing 13 cell necrosis, resulting in varying degrees of blood insulin drop and blood sugar rise, resulting in insulin-dependent type 1 diabetes mellitus. […] Modelling criteria are non-fasting blood glucose values above 13.8 mM (250 mg/dl). The modeling steps are as follows: (4) According to the body weight, mice in the model group were injected intraperitoneally with 2% STZ-citric acid solution (160 mg/kg), and the mice in the control group were intraperitoneally injected with the corresponding volume of citrate buffer. 2 h after the injection, the mice were fed back. […] Specific steps are as follows: (3) According to the body weight, the insulin rescue group was subcutaneously injected with diluted insulin (1 U/kg/day), once a day at the same time for 7 consecutive days, and the control group was given a corresponding volume of normal saline. […] Body weight and random blood glucose were measured at different time points after injection. […] (1) Sample preparation: Store the freshly obtained mouse blood in an EDTA anticoagulation tube, stand at room temperature for 10 min, centrifuge at 1000 g for 15 min, and collect the supernatant, namely plasma. If it cannot be detected immediately, it should be subpackaged and stored at −80° C. to avoid repeated freezing. If precipitation occurs during storage, it should be fully thawed at room temperature before use, and centrifuged again.

[4] = system: Leptin−/− mice; experiment: Leptin−/− mice injected with D-glucose, MDC rescue; assay type: in vivo, mouse; settings: 6-week-old Leptin−/− mice, D-glucose every 2 h for 24 h
Protocol: The in vivo rescue experiment of MDC in Leptin^−/− mice was performed by pre-intraperitoneal injection of MDC in 6-week-old Leptin^−/− mice (diluted in sterile PBS, 10 mg/kg) or the corresponding volume of DMSO (diluted in sterile PBS). The injected dose of MDC in Leptin^−/− mice should be calculated based on the body weight of 6-week-old littermates of WT mice. After 1 h of MDC intervention, 50% D-glucose or the corresponding volume of PBS was injected intraperitoneally. The procedure of injecting D-glucose into Leptin^−/− mice was as follows: 12 injections were performed every 2 hours during the 24-hour period, and the injection dose of D-glucose was fixed at the first dose (2 g/kg).

[5] = system: HUVEC cells; experiment: γH2AX DNA damage response in HUVEC cells (Western blot); assay type: cell-based
Protocol: (2) The transfection system of a 3.5 cm petri dish was prepared as follows: 1 μl of siRNA Oligo/Red (concentration of the original solution was 20 μM) was added to an EP tube containing 250 μl of pure Opti-MEM and mixed, and 1.5 μl of RNAiMAX (transfection Reagent) was added to the flow tube containing 250 μl of pure Opti-MEM and mixed, and then all the liquid in the EP tube was added to the flow tube and mixed, and allowed to stand at room temperature for 15 min.
(3) The prepared transfection system was added to a 3.5 cm culture dish, and the cells were cultured for 24-48 h, then the samples were collected and the total cell protein was extracted, and the knockdown effect of the gene was identified by Western Blotting.
(3) Add 150 μl of total protein lysate to each cell sample to make the lysate fully contact with the cells, scrape off the cell lysate with a scraper, collect it into a pre-cooled EP tube, and take an ice bath for 15 min.
(§1) Protein electrophoresis gels are double-layered gels, including an upper stacking gel and a lower separating gel. The concentration of the stacking gel is 5%, and the concentration of the separating gel is determined according to the molecular weight of the target protein. In this study, large molecular weight proteins (LRP5/6, β-catenin, β-arrestin1/2) used 8%-5% double-layer gel, and small molecular weight proteins (γH2AX, p53, p21, Bcl-2, Bax, Cleaved Caspase-3) used 12%-5% double-layer gel. In addition, the number of wells (10 wells or 15 wells) and thickness (1 mm or 1.5 mm) of the preparation gel were selected according to the number and volume of protein samples loaded. The gel formulation is shown in the experimental material section, and the preparation steps are as follows: […]

[6] = system: LRP6 and Kremen2; experiment: Intramuscular injection of Dkk1, Western blot of membrane LRP6 and Kremen2; assay type: in vivo, mouse
Protocol: Wild-type mice and β-arrestin2+/−KO mice were injected into the left quadriceps (0.25 mg/kg) and an equal volume of PBS was injected into the right leg as controls. MDC (10 mg/kg), IGFBP-4/H95P (1.7 mg/kg) or PBS were injected in combination with Dkk1 as a control to observe the effects of drugs on Dkk1-induced signal transduction. After 48 hours, the mice were sacrificed, and the left and right quadriceps were taken to measure the […].
Membrane proteins were extracted according to the instructions of Membrane Protein Extraction Kit (Sangon Biotech, China). Western blot analysis omitted. Antibodies for WB analysis were purchased from Cell Signaling Technology and Proteintech.

[7] = system: β-arrestin1/2; experiment: β-arrestin1/2 translocation in HUVEC cells (Western blot); assay type: cell-based
Protocol: (§2) (5) Add 100 μl (cell) or 200 μl (tissue) A solution to each sample, and resuspend the cell pellet with a pipette to completely disperse the pellet. The tissue pellet should be fully homogenized on ice with a homogenizer, and the ice bath should be used for 15 min.
(§3) (10) Add 50 μl (cells) or 100 μl (tissue) B solution to each sample, resuspend the pellet in Vortex at the highest speed for 10 s, ice bath for 10 min, and repeat twice to fully extract membrane proteins.
as §1

[8] = system: wild-type mice heart; experiment: Local injection of Dkk1 protein into the heart combined with MDC or BIM-46187; assay type: in vivo, mouse
Protocol: In the experiment of local injection of Dkk1 purified protein into the heart combined with MDC intervention, 10-week-old wild-type male mice were selected, the left chest was depilated, and intraperitoneal injection of MDC (diluted in sterile PBS, 10 mg/kg) or the corresponding volume of DMSO (diluted in sterile PBS) and injected at the same time every day thereafter. After 1 h of MDC intervention, cardiac Dkk1 protein injection was performed. The mice were given continuous inhalation anesthesia with 1% isoflurane and oxygenated with a ventilator, and then the fourth intercostal space near the sternum was opened to expose the heart. Using a 200 μl microsyringe, Dkk1 (10 μg of Dkk1 per heart, dissolved in 30 μl PBS) or an equal volume of PBS was injected locally at three sites in the heart. Of these, two sites are on the border around the left ventricle, and one site enters the myocardium of the left ventricle. After the injection, the wound was sutured, the anesthesia was removed, and the mice were awake. After MDC was continuously intervened for 2 days, the mice were anesthetized and the materials were collected.
In addition to injecting Dkk1 protein alone into the heart, we also need to perform experiments of local injection of Dkk1 combined with BIM-46187 into mouse hearts. According to the experimental grouping, it was divided into cardiac injections of four different solutions, including PBS, Dkk1, BIM-46187, and a mixture of Dkk1 and BIM-46187. The dosage of Dkk1 per heart is 10 μg, and the dosage of BIM-46187 is 2.4 ng, diluted with 30 μl PBS and then injected into the heart. The specific operation steps are the same as above. After the injection, the wound was sutured, the anesthesia was removed, and the mice were awake. Two days after the injection, the mice were anesthetized and the materials were collected.

[9] = system: GPCR signaling pathways and cachexia-related pathways; experiment: RNA-Seq analysis of quadriceps femoris; assay type: in vivo, mouse; settings: direct intramuscular injection of Dkk1 protein into the lower limbs
Protocol: Total RNA was extracted using Trizol kit (Lige technology), RNA sequencing library was constructed from the extracted RNA using Illlumina library preparation protocol, RNA-seq was performed on Illlumina HiSeq4000 platform, using two-terminal protocol, the length of both regions was 150 bp. Sequencing reads were aligned to annotated mouse transcripts (mm10) using hisat2 (v2.1.0). Using GFOLD (v1.1.4) to calculate the gene expression level and has found differentially expressed genes. The parameters are as follows: GFOLD value≠0, and the changing value of the two samples is ≥1.35. The RNA-seq data collector GSE121873 was uploaded to the gene expression comprehensive database. KEGG pathway analysis was performed on the defined genes.

[10] = system: LRP5/6; experiment: Membrane LRP5/6 endocytosis and nuclear β-catenin in HUVEC cells (Western blot); assay type: cell-based
Protocol: as §2, §3
(11) Aspirate the residual supernatant completely, and add 50 μl of nuclear protein extract to each sample.
as §1

In the case of CN(C)c1cccc2c(S(=O)(=O)NCCCCCN)cccc12 [MDC], the “loss of body weight and muscle weight” value [1] is reported as “reverse tumor-induced loss of tumor-free body weight and muscle atrophy; also recorded: completely prevents the loss of body weight and muscle weight”, the “downregulation of LRP6 and Kremen2 on membrane in muscle” value ([1]; Western blot) is reported as “reverses downregulation of LRP6 and Kremen2 on membrane” and the “death / shortened survival of tumor-bearing mice induced by Dkk1 injection” value [2] is reported as “prolong the shortening of survival in tumor-bearing mice caused by Dkk1; also recorded: inhibit the rapid death of tumor-bearing mice induced by Dkk1 injection”. For the same molecule, the “survival of tumor-bearing mice” value [2] was “prolongs the survival of CT26 mice”, the “blood 8-OHdG (ELISA)” value ([3]; STZ diabetic mice) was “prevented the elevation of 8-OHdG” and the blood glucose concentration ([3]; STZ diabetic mice) was “without altering blood glucose concentrations; also recorded: do not alter blood glucose levels”. For the same molecule, the “body weight loss of diabetic mice” value ([3]; STZ diabetic mice) was “inhibits; also recorded: suppressed”, the “cardiac p53, p21, Bax/Bcl-2 and Cleaved Caspase-3” value ([3]; STZ diabetic mice, heart) was “inhibits the upregulation of p53, p21, Bax/Bcl-2 and Cleaved Caspase-3” and the “cardiac γH2AX” value ([3]; STZ diabetic mice, heart) was “γH2AX activation in diabetic hearts can also be inhibited”. The “damage to myocardial structure (HE staining)” value ([3]; STZ diabetic mice, heart) was “prevented”, the “translocation of cardiac β-arrestin1/2 in diabetic hearts” value ([3]; STZ diabetic mice, heart) was “prevented” and the “overall LRP5/6 and nuclear or overall β-catenin expression levels” value ([3]; STZ diabetic mice, heart, MDC) was “remain unchanged”. The “LRP5/6 on the cardiac membrane” value ([3]; STZ diabetic mice, heart, Western blot) was “STZ-induced downregulation of LRP5/6 in diabetic cardiac membranes can be inhibited”, the “translocation of insulin receptors on the cardiac membrane or in the plasma” value ([3]; substance alone (FIG. 19G)) was “does not induce translocation of insulin receptors” and the “down-regulation of LRP5/6 on cardiac membranes induced by glucose injection” value [4] was “significantly reversed the down-regulation of LRP5/6 on cardiac membranes”. The “up-regulation of molecular markers of injury induced by glucose injection” value [4] was “significantly reversed”, the “γH2AX signaling enhanced by H2O2 in the presence of Dkk1” value ([5]; Dkk1 then H2O2 50 μM) was “significantly attenuated” and the “H2O2-induced γH2AX activation” value ([5]; H2O2 50 μM, without Dkk1) was “does not prevent H2O2-induced γH2AX activation”. For the same molecule, the “γH2AX response by the substance itself” value ([5]; no Dkk1, no H2O2) was “does not elicit γH2AX responses”, the “Dkk1-induced γH2AX activation” value ([5]; pretreatment with MDC or LRP6N protein) was “attenuated; also recorded: prevents” and the “Dkk1-induced endocytosis / downregulation of membrane LRP6 and Kremen2” value ([6]; simultaneous injection with Dkk1) was “prevents this phenomenon”. The “Dkk1-induced translocation of β-arrestin1/2” value ([7]; MDC pretreatment) was “prevent the above translocation changes of β-arrestin1/2; also recorded: prevents the translocation of β-arrestin1/2 into cells”, the “Dkk1-induced cardiac β-arrestin1/2 translocation” value ([8]; Dkk1 intracardiac injection with MDC or BIM-46187) was “inhibited” and the “Dkk1-induced cardiac changes (LRP5/6, γH2AX, p53, p21)” value ([8]; Dkk1 intracardiac injection with MDC pretreatment or combined with BIM-46187) was “reversed”.

B1: Dkk1: recombinant mouse Dkk1 protein purchased from Genscript; secreted protein inducing LRP5/6 endocytosis (protein)
chain: TLNSVLINSNAIKNLPPPLGGAGGQPGSAVSVAPGVLYEGGNKYQTLDNYQPYPCAEDEECGSDEYCSSPSRGAAGVGGVQICLACRKRRKRCMRHAMCCPGNYCKNGICMPSDHSHFPRGEIEESIIENLGNDHNAAAGDGYPRRTTLTSKIYHTKGQEGSVCLRSSDCAAGLCCARHFWSKICKPVLKEGQVCTKHKRKGSHGLEIFQRCYCGEGLACRIQKDHHQASNSSRLHTCQRH
With B1 the “activation of GPCR signaling pathways and cachexia-related pathways” value [9] was “immediately led to the activation of GPCR signaling pathways and cachexia-related pathways”, the “survival of tumor-bearing mice” value [2] was “significantly shorten the survival period of tumor-bearing mice” and the “time of peak γH2AX activation” value ([5]; Dkk1 100 ng/ml) was 15 min. For the same molecule, the “time to significant γH2AX activation” value ([5]; Dkk1 100 ng/ml) was no more than 5 min, the “membrane LRP6 and Kremen2 after intramuscular injection of Dkk1” value ([6]; Dkk1 alone, lower limbs of normal mice) was “causes the endocytosis of LRP6 and Kremen2 on the membrane” and the “β-arrestin1/2 translocation (cytoplasm / cell membrane)” value ([7]; Dkk1 stimulation alone) was “rapidly up-regulate β-arrestin1/2 in HUVEC cytoplasm and down-regulate β-arrestin1/2 on the cell membrane”. The “cardiac membrane LRP5/6, γH2AX, p53, p21 and β-catenin signaling” value ([8]; Dkk1 purified protein injected into myocardium, alone) was “directly induce the down-regulation of LRP5/6 and the up-regulation of γH2AX, p53 and p21 on the cardiac membrane without affecting β-catenin signaling”, the “cardiac β-arrestin1/2 translocation” value ([8]; direct injection of Dkk1 into the heart, alone) was “induces down-regulation of membrane β-arrestin1/2 and plasma β-arrestin1/2 and nuclear β-arrestin1 are up-regulated” and the “translocation of insulin receptors in cardiac cells” value ([8]; direct injection of Dkk1 protein) was “do not undergo translocation changes”. The “time after which nuclear β-catenin is down-regulated” value ([10]; Dkk1 100 ng/ml) was 60 min, the “time from which endocytosis of LRP5 on the cell membrane is induced” value ([10]; Dkk1 100 ng/ml) was 15 min and the “time from which endocytosis of LRP6 on the cell membrane is induced” value ([10]; Dkk1 100 ng/ml) was 5 min. For the same molecule, the “nuclear β-catenin expression within 30 min” value ([10]; higher doses of Dkk1) was “does not down-regulate nuclear β-catenin expression”.
